# Test results taken from PubChem BioAssay (NCI).
# Where “and” joins values, the source holds several entries; their conditions need not be identical. Equal values may be shown once.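 In this assay, cells in 96-well plates receive the compound at five concentrations for 48 hours. Endpoints are linearly interpolated between the surrounding concentrations. TGI: concentration producing complete growth inhibition.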
# System: UACC-257 melanoma
# Assay: DTP human tumour cell line panel, 48 h
row,SMILES,TGI
1,CC1=CCC([C@@](C)(O)CCCC(C)(C)N=C=S)CC1 (stereo partly drawn),35 µM
2,CCN1CN(c2ccccc2)C2(CCN(CC3COc4ccccc4O3)CC2)C1=O (stereo not drawn),> 100 µM
3,C=C1C(=O)CC2C1CC(=O)/C(C)=C/CCC(C)(O)C2O (stereo not drawn),12.6 µM
4,O=C1C=C/C(=N\N=C(c2ccccc2)c2ccccc2)O1,> 10 µM
5,N[C@@H](Cc1ccccc1)C(=O)N1CCC[C@@H]1P(=O)(Oc1ccccc1)Oc1ccccc1,> 100 µM
6,Cc1ccc(/C=N\NC2c3cc(Cl)ccc3Nc3nc(=O)[nH]c(C)c32)cc1 (stereo not drawn),> 100 µM
7,O=c1[nH][nH]c(=O)n1CCCCCCn1c(=O)[nH][nH]c1=O,> 100 µM
8,C[C@H](CCC(=O)O)[C@H]1CC[C@H]2[C@@H]3C(=O)C[C@@H]4C[C@H](O)CC[C@]4(C)[C@H]3C[C@H](O)[C@]12C,> 100 µM
9,CC(=O)NC1C(OCc2ccccc2)OC(CO)C(O)C1OCC(=O)N[C@@H](C)C(=O)N[C@H](CCC(=O)NCCCNc1c2ccccc2nc2cccc([N+](=O)[O-])c12)C(N)=O (stereo partly drawn),0.177 µM
10,COc1ccc(-c2nc(SCC(=O)NNC(=S)Nc3ccccc3)[nH]c2-c2ccc(OC)cc2)cc1,44.1 µM
11,O=C(O)c1ccccc1CC(Cc1ccc2c(c1)CCC2)C(=O)O (stereo not drawn),> 100 µM
12,Cn1c(SCc2ccc(F)cc2)nnc1C12CC3CC(CC(C3)C1)C2,91.7 µM
13,COC(=O)/C=C\C(C#N)(C#N)N=Cc1ccc(C)cc1,12.6 µM
14,CC(c1ccccc1)N1CCN(C(C)c2ccccc2)CC1 (stereo not drawn),> 100 µM
15,CCCCCC#CCOC(=O)C(=[N+]=[N-])P(=O)(c1ccccc1)c1ccccc1,> 10 µM
16,COc1ccc(C(=O)/C=C/c2ccc(OCCCOc3ccc(/C=C/C(=O)c4ccc(OC)cc4)cc3)cc2)cc1,> 100 µM
17,CCOc1cc(/C=C2/C(C)=NN(c3cccc(Cl)c3)/C2=N/c2nc3ccccc3s2)ccc1O,61.6 µM
18,O=C(O)COc1ccccc1C(=O)Nc1ccccc1,> 100 µM
19,COc1cc(OC)cc(C(=O)CC(=O)c2cc(OC)cc(OC)c2)c1,> 100 µM
20,COc1ccc(C2c3cn[nH]c3CC3CCCCC32)cc1 (stereo not drawn),45.9 µM
21,O=C(O)[C@H]1CCCN1CP(=O)(O)CN1CCC[C@@H]1C(=O)O,> 100 µM

row,SMILES,TGI
1,O=C1CC2(CCC(O)(c3ccc4ccccc4c3)C(C(=O)c3ccc4ccccc4c3)C2)C(=O)c2ccccc2N1 (stereo not drawn),> 100 µM
2,Cc1nc(C)c(N2CCN([N+](=O)[O-])CC2)c(=O)[nH]1,> 100 µM
3,COc1cc2c(cc1OC)C(C(c1ccccc1)c1ccccc1)N(C)CC2 (stereo not drawn),> 86.9 µM
4,CCOC(=O)N1CCC(N[C@@H]2c3cc4c(cc3C(c3cc(OC)c(O)c(OC)c3)C3C(=O)OC[C@@H]32)OCO4)CC1 (stereo partly drawn),36.3 µM and > 25 µM
5,C[N+](C)([O-])CCOc1cc2c(c3ccccc13)-c1ccccc1C2=O,16.9 µM
6,CCOC(=O)C1S/C(=N\C(=N)N[N+](=O)[O-])N=C1C (stereo not drawn),> 100 µM
7,CCCCCCCCCCCCCCCCNc1cccc2ccccc12,> 100 µM
8,O=C1OCC/C1=N/O,> 100 µM
9,CC(O)CNC(=O)C(C)Oc1ccc(OCC2CCCCC2)cc1 (stereo not drawn),> 100 µM
10,Cc1ccc(C2=CC(=O)OC(C[P+](c3ccccc3)(c3ccccc3)c3ccccc3)(c3ccccc3)O2)cc1 (stereo not drawn),30.8 µM
11,Cc1ccc(S(=O)(=O)n2c3c(c4ccccc42)CCN2C[C@H]([C@H](C)Br)CC[C@@H]32)cc1,> 100 µM
12,O=c1oc2cc(O)ccc2c(O)c1C(c1ccccc1)c1c(O)c2ccc(O)cc2oc1=O,> 100 µM
13,O=C(NCP(=O)(Oc1ccccc1)Oc1ccccc1)OCc1ccccc1,> 100 µM
14,Cc1c(/C=N\NC(=S)NCCNC(=S)N/N=C\c2c(C)n(C)n(-c3ccccc3)c2=O)c(=O)n(-c2ccccc2)n1C,> 100 µM
15,O=P(O)(O)C(N=C(Nc1ccccc1)Nc1ccccc1)P(=O)(O)O,> 100 µM
16,Cc1c(O)nc(-n2[nH]c3c(c2=O)CCCC3)[nH]c1=O,> 100 µM
17,C=CCn1c(=O)c(C(=O)Nc2nc(C34CC5CC(CC(C5)C3)C4)cs2)c(O)c2ccccc21,22.4 µM
18,CC(NC(=O)Cc1ccccc1)NC(=O)C(C)C(=O)Nc1ccccc1 (stereo not drawn),> 100 µM
19,CCOC(=O)c1c(-c2ccc(O)c(OC)c2)c(C#N)c(=S)n(C2OC(CO)C(O)C(O)C2O)c1-c1ccccc1 (stereo not drawn),> 100 µM
20,COC(C)(C)C1(O)CC[C@@H](C)CC1=O (stereo partly drawn),> 100 µM
21,Nc1ccc(N=Nc2c(S(=O)(=O)O)cc3ccccc3c2S(=O)(=O)O)cc1,> 100 µM

# System: MCF7 breast
# Assay: DTP human tumour cell line panel, 48 h
row,SMILES,TGI
1,CC1=CCC([C@@](C)(O)CCCC(C)(C)N=C=S)CC1 (stereo partly drawn),34.6 µM
2,CCN1CN(c2ccccc2)C2(CCN(CC3COc4ccccc4O3)CC2)C1=O (stereo not drawn),77.6 µM
3,C=C1C(=O)CC2C1CC(=O)/C(C)=C/CCC(C)(O)C2O (stereo not drawn),8.38 µM
4,O=C1C=C/C(=N\N=C(c2ccccc2)c2ccccc2)O1,> 10 µM
5,N[C@@H](Cc1ccccc1)C(=O)N1CCC[C@@H]1P(=O)(Oc1ccccc1)Oc1ccccc1,> 100 µM
6,O=c1[nH][nH]c(=O)n1CCCCCCn1c(=O)[nH][nH]c1=O,> 100 µM
7,C[C@H](CCC(=O)O)[C@H]1CC[C@H]2[C@@H]3C(=O)C[C@@H]4C[C@H](O)CC[C@]4(C)[C@H]3C[C@H](O)[C@]12C,> 100 µM
8,CC(=O)NC1C(OCc2ccccc2)OC(CO)C(O)C1OCC(=O)N[C@@H](C)C(=O)N[C@H](CCC(=O)NCCCNc1c2ccccc2nc2cccc([N+](=O)[O-])c12)C(N)=O (stereo partly drawn),2.42 µM
9,COc1ccc(-c2nc(SCC(=O)NNC(=S)Nc3ccccc3)[nH]c2-c2ccc(OC)cc2)cc1,47.5 µM
10,O=C(O)c1ccccc1CC(Cc1ccc2c(c1)CCC2)C(=O)O (stereo not drawn),> 100 µM
11,COC(=O)/C=C\C(C#N)(C#N)N=Cc1ccc(C)cc1,3.68 µM
12,CCCCCC#CCOC(=O)C(=[N+]=[N-])P(=O)(c1ccccc1)c1ccccc1,> 10 µM
13,COc1ccc(C(=O)/C=C/c2ccc(OCCCOc3ccc(/C=C/C(=O)c4ccc(OC)cc4)cc3)cc2)cc1,> 100 µM
14,CCOc1cc(/C=C2/C(C)=NN(c3cccc(Cl)c3)/C2=N/c2nc3ccccc3s2)ccc1O,81.8 µM
15,COc1cc(OC)cc(C(=O)CC(=O)c2cc(OC)cc(OC)c2)c1,> 100 µM
16,COc1ccc(C2c3cn[nH]c3CC3CCCCC32)cc1 (stereo not drawn),32.8 µM
17,O=C(O)[C@H]1CCCN1CP(=O)(O)CN1CCC[C@@H]1C(=O)O,> 100 µM

row,SMILES,TGI
1,O=C1CC2(CCC(O)(c3ccc4ccccc4c3)C(C(=O)c3ccc4ccccc4c3)C2)C(=O)c2ccccc2N1 (stereo not drawn),> 100 µM
2,Cc1nc(C)c(N2CCN([N+](=O)[O-])CC2)c(=O)[nH]1,> 100 µM
3,COc1cc2c(cc1OC)C(C(c1ccccc1)c1ccccc1)N(C)CC2 (stereo not drawn),> 100 µM
4,C[N+](C)([O-])CCOc1cc2c(c3ccccc13)-c1ccccc1C2=O,> 100 µM
5,O=[N+]([O-])C(=C(Nc1cccc2cccnc12)Nc1cccc2cccnc12)C(Cl)=C(Cl)Cl,54.8 µM
6,CNc1cc2c(c3ccccc13)C(CCl)CN2C(=O)c1cc2cc(OC)c(OC)c(OC)c2[nH]1 (stereo not drawn),0.131 µM
7,CSC1=N/C(=C\c2ccc(C)cc2)C(=O)N1CN1CCCCC1,> 100 µM
8,Cc1ccc(C2=CC(=O)OC(C[P+](c3ccccc3)(c3ccccc3)c3ccccc3)(c3ccccc3)O2)cc1 (stereo not drawn),56.6 µM
9,Cc1ccc(S(=O)(=O)n2c3c(c4ccccc42)CCN2C[C@H]([C@H](C)Br)CC[C@@H]32)cc1,> 100 µM
10,O=c1oc2cc(O)ccc2c(O)c1C(c1ccccc1)c1c(O)c2ccc(O)cc2oc1=O,> 100 µM
11,O=C(NCP(=O)(Oc1ccccc1)Oc1ccccc1)OCc1ccccc1,> 100 µM
12,O=P(O)(O)C(N=C(Nc1ccccc1)Nc1ccccc1)P(=O)(O)O,> 100 µM
13,C=CCn1c(=O)c(C(=O)Nc2nc(C34CC5CC(CC(C5)C3)C4)cs2)c(O)c2ccccc21,> 100 µM
14,CC(NC(=O)Cc1ccccc1)NC(=O)C(C)C(=O)Nc1ccccc1 (stereo not drawn),> 100 µM
15,CCOC(=O)c1c(-c2ccc(O)c(OC)c2)c(C#N)c(=S)n(C2OC(CO)C(O)C(O)C2O)c1-c1ccccc1 (stereo not drawn),> 100 µM
16,C=C1CC(C#N)(C#N)[C@H]2C3CCCC3C[C@@H]12 (stereo partly drawn) (tested in a mixture with another compound),29.8 µM
17,COC(C)(C)C1(O)CC[C@@H](C)CC1=O (stereo partly drawn),> 100 µM

# System: SN12C renal
# Assay: DTP human tumour cell line panel, 48 h
row,SMILES,TGI
1,CC1=CCC([C@@](C)(O)CCCC(C)(C)N=C=S)CC1 (stereo partly drawn),35.6 µM
2,CCN1CN(c2ccccc2)C2(CCN(CC3COc4ccccc4O3)CC2)C1=O (stereo not drawn),> 100 µM
3,C=C1C(=O)CC2C1CC(=O)/C(C)=C/CCC(C)(O)C2O (stereo not drawn),5.32 µM
4,O=C1C=C/C(=N\N=C(c2ccccc2)c2ccccc2)O1,> 10 µM
5,N[C@@H](Cc1ccccc1)C(=O)N1CCC[C@@H]1P(=O)(Oc1ccccc1)Oc1ccccc1,> 100 µM
6,Cc1ccc(/C=N\NC2c3cc(Cl)ccc3Nc3nc(=O)[nH]c(C)c32)cc1 (stereo not drawn),> 100 µM
7,O=c1[nH][nH]c(=O)n1CCCCCCn1c(=O)[nH][nH]c1=O,> 100 µM
8,C[C@H](CCC(=O)O)[C@H]1CC[C@H]2[C@@H]3C(=O)C[C@@H]4C[C@H](O)CC[C@]4(C)[C@H]3C[C@H](O)[C@]12C,> 100 µM
9,CC(=O)NC1C(OCc2ccccc2)OC(CO)C(O)C1OCC(=O)N[C@@H](C)C(=O)N[C@H](CCC(=O)NCCCNc1c2ccccc2nc2cccc([N+](=O)[O-])c12)C(N)=O (stereo partly drawn),0.327 µM
10,COc1ccc(-c2nc(SCC(=O)NNC(=S)Nc3ccccc3)[nH]c2-c2ccc(OC)cc2)cc1,50.8 µM
11,O=C(O)c1ccccc1CC(Cc1ccc2c(c1)CCC2)C(=O)O (stereo not drawn),> 100 µM
12,Cn1c(SCc2ccc(F)cc2)nnc1C12CC3CC(CC(C3)C1)C2,> 100 µM
13,COC(=O)/C=C\C(C#N)(C#N)N=Cc1ccc(C)cc1,29.8 µM
14,CC(c1ccccc1)N1CCN(C(C)c2ccccc2)CC1 (stereo not drawn),> 100 µM
15,CCCCCC#CCOC(=O)C(=[N+]=[N-])P(=O)(c1ccccc1)c1ccccc1,> 10 µM
16,COc1ccc(C(=O)/C=C/c2ccc(OCCCOc3ccc(/C=C/C(=O)c4ccc(OC)cc4)cc3)cc2)cc1,> 100 µM
17,O=C(O)COc1ccccc1C(=O)Nc1ccccc1,> 100 µM
18,COc1cc(OC)cc(C(=O)CC(=O)c2cc(OC)cc(OC)c2)c1,> 100 µM
19,COc1ccc(C2c3cn[nH]c3CC3CCCCC32)cc1 (stereo not drawn),33.2 µM
20,O=C(O)[C@H]1CCCN1CP(=O)(O)CN1CCC[C@@H]1C(=O)O,> 100 µM
21,O=C1CC2(CCC(O)(c3ccc4ccccc4c3)C(C(=O)c3ccc4ccccc4c3)C2)C(=O)c2ccccc2N1 (stereo not drawn),> 100 µM
22,Cc1nc(C)c(N2CCN([N+](=O)[O-])CC2)c(=O)[nH]1,> 100 µM
